Source: patent publication US8609661B2, “Pyrimido-pyrrolo-quinoxalinedione inhibitors of cystic fibrosis transmembrane conductance regulator protein and uses therefor” (The Regents of the University of California, priority 2009, dated 2013)

How the values were obtained:
Type in all cases: cell-based
[1] = molecular target: CFTR (Homo sapiens, UniProt P13569); test: Short-circuit current in non-permeabilized T84 and human bronchial epithelial cells; parameters: endogenous in cells; host or cells: T84 human intestinal epithelial cells; primary human bronchial epithelial cells; settings: forskolin and IBMX, read-out: IC50 for CFTR inhibition
Protocol: Short-Circuit Current Measurements—Snapwell inserts containing CFTR-expressing FRT cells (stably expressing human wildtype CFTR), T84 cells, or human bronchial epithelial cells were mounted in Ussing chambers. For FRT cells the hemichambers were filled with 5 mL of 75 mM NaCl and 75 mM Na gluconate (apical), and 150 mM NaCl (basolateral) (pH 7.3), and the basolateral membrane was permeabilized with 250 μg/mL amphotericin B. For bronchial epithelial cells and T84 cells, both hemichambers contained a Krebs-bicarbonate solution. Hemichambers were continuously bubbled with air (FRT cells) or 5% CO2 in air (bronchial and T84 cells) and maintained at 37° C. Short-circuit current was recorded continuously using a DVC-1000 voltage clamp (World Precision Instruments, Sarasota, Fla.) using Ag/AgCl electrodes and 3 M KCl agar bridges.

[2] = tested on: calcium-activated chloride channels; test: UTP-induced chloride currents in cystic fibrosis (CFTR-deficient) human bronchial epithelial cells; settings: 10 or 20 μM; UTP 100 μM
Protocol: FIG. 3A: Apical membrane current measured in CFTR-expressing FRT cells in the presence of a transepithelial chloride gradient and with amphotericin B permeabilization of the basolateral membrane. CFTR was activated by CPT-cAMP (chlorophenylthio-cAMP) (100 μM), with increasing concentrations of PPQ-102 added as shown. Left: Original recording. Right: Dose-response (S.E. n=4). FIG. 3B: Measurements as in FIG. 3A, but with apigenin (100 μM) or IBMX (100 μM) as agonists. The data are representative of 3 sets of experiments. FIG. 3C: Short-circuit current measured in T84 (left) and human bronchial airway epithelial cells (right). CFTR was maximally activated by 10 μM forskolin and 100 μM IBMX (‘forsk’). Current in the absence of inhibitor is indicated as ‘control.’ FIG. 3D: Calcium-activated chloride channels were activated by UTP (100 μM) in cystic fibrosis (CFTR-deficient) human bronchial epithelial cells, with PPQ-102 added as indicated. ENaC (epithelial sodium channel) was inhibited by amiloride (10 μM). FIG. 3E: Cellular cAMP assayed in CHO—K1 cells under basal conditions and after addition of 20 μM forskolin (S.E. n=4, differences with PPQ-102, not significant).

[3] = molecular target: T1, human wildtype CFTR (Homo sapiens, UniProt P13569); test: Whole-cell patch-clamp in CFTR-expressing FRT cells; settings: 0.5 μM; voltage-independent block
T1 construct: expressed in transfected cells; host or cells: Fischer rat thyroid (FRT) cells
Protocol: D. Patch-Clamp Analysis—Whole cell recordings were performed using FRT cells stably expressing human wildtype CFTR. The pipette solution contained 140 mM N-methyl D-glucamine chloride (NMDG-Cl), 5 mM EGTA, 1 mM MgCl2, 1 mM Tris-ATP, and 10 mM HEPES (pH 7.2), and the bath solution contained 140 mM N-methyl D-glucamine chloride, 1 mM CaCl2, 1 mM MgCl2, 10 mM glucose and 10 mM HEPES (pH 7.4). Experiments were performed at room temperature (22-25° C.). Pipettes were pulled from borosilicate glass and had resistances of 3-5 Mohm after fire polishing. […] After establishing the whole-cell configuration, CFTR was activated by adding forskolin and 3-isobutyl-1-methylxanthine (IBMX). Whole cell currents were elicited by applying hyperpolarizing and depolarizing voltage pulses from a holding potential of 0 mV to potentials between −100 mV and +100 mV in steps of 20 mV. Current was filtered at 5 kHz and digitized and analyzed using an AxoScope 10.0 system and a Digidata® 1440A AC/DC converter (Molecular Devices, Sunnyvale, Calif.). The single channel characteristics of CFTR were analyzed in the cell-attached configuration using fire-polished pipettes with a resistance of 10-15 Mohm. […] Single channel data were digitally filtered at 25 Hz, and analyzed using Clampfit 10.0 software (Axon Instruments).

[4] = molecular target: T1, human wildtype CFTR; test: Single-channel cell-attached patch recordings of CFTR; settings: 1 μM
Protocol: D. Patch-Clamp Analysis—Whole cell recordings were performed using FRT cells stably expressing human wildtype CFTR. The pipette solution contained 140 mM N-methyl D-glucamine chloride (NMDG-Cl), 5 mM EGTA, 1 mM MgCl2, 1 mM Tris-ATP, and 10 mM HEPES (pH 7.2), and the bath solution contained 140 mM N-methyl D-glucamine chloride, 1 mM CaCl2, 1 mM MgCl2, 10 mM glucose and 10 mM HEPES (pH 7.4). Experiments were performed at room temperature (22-25° C.). Pipettes were pulled from borosilicate glass and had resistances of 3-5 Mohm after fire polishing. […] After establishing the whole-cell configuration, CFTR was activated by adding forskolin and 3-isobutyl-1-methylxanthine (IBMX). Whole cell currents were elicited by applying hyperpolarizing and depolarizing voltage pulses from a holding potential of 0 mV to potentials between −100 mV and +100 mV in steps of 20 mV. Current was filtered at 5 kHz and digitized and analyzed using an AxoScope 10.0 system and a Digidata® 1440A AC/DC converter (Molecular Devices, Sunnyvale, Calif.). The single channel characteristics of CFTR were analyzed in the cell-attached configuration using fire-polished pipettes with a resistance of 10-15 Mohm. The pipette solution contained (in mM): 140 NMDG-Cl, 1 CaCl2, 1 MgCl2, 5 glucose and 10 HEPES (pH 7.4), and the bath solution contained 140 KCl, 1 CaCl2, 1 MgCl2, 5 glucose and 10 HEPES (pH 7.4). Recordings were performed at room temperature using an Axopatch-200B (Axon Instruments, Foster City, Calif.). The voltage and current data were low-pass filtered at 1 kHz and stored for later analysis. Single channel data were digitally filtered at 25 Hz, and analyzed using Clampfit 10.0 software (Axon Instruments).
Cell-attached patch recordings were performed to examine single-channel CFTR function.

T1 sequence (P13569 whole entry): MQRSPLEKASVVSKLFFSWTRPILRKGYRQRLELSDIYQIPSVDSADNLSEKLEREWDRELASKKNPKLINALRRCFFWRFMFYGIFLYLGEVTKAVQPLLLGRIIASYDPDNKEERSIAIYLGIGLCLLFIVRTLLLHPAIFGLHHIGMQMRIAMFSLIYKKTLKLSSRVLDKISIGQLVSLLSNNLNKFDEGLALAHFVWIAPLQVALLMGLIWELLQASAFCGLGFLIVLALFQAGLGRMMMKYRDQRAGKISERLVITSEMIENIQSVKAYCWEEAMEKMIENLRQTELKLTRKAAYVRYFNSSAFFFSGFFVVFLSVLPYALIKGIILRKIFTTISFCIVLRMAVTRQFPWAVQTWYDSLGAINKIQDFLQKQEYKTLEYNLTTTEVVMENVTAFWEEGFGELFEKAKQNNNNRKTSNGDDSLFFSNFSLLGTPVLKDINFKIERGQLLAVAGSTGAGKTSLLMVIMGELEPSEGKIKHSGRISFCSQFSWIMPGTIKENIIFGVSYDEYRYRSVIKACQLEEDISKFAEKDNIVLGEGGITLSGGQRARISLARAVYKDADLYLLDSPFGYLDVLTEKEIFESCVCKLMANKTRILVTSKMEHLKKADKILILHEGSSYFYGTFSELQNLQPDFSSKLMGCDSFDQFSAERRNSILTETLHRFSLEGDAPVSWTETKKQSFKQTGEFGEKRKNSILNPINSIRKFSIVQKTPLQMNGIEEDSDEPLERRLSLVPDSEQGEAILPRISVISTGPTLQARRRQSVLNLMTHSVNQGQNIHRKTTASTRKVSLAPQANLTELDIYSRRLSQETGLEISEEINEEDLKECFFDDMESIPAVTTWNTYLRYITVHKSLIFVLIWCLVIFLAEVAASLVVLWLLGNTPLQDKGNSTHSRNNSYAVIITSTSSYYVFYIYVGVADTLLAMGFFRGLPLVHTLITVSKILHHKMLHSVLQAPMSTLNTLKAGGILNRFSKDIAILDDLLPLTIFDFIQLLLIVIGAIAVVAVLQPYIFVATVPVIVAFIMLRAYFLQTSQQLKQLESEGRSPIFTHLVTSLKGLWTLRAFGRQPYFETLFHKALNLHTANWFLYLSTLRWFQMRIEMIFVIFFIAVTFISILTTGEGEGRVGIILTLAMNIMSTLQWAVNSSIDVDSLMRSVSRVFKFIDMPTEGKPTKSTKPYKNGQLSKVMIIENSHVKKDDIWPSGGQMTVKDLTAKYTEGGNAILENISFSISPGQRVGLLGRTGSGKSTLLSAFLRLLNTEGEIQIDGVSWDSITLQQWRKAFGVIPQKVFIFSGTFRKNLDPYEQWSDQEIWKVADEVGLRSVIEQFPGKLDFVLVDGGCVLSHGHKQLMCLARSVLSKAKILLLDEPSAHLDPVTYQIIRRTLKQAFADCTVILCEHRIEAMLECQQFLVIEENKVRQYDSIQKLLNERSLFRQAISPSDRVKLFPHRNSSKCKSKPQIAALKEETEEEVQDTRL
Chain of CFTR (P13569 whole entry): as above

Compound: Cc1ccc(C2Nc3ccccc3-n3c(-c4ccccc4)c4c(=O)n(C)c(=O)n(C)c4c32)o1 (racemic) [PPQ-102, 7,9-Dimethyl-11-phenyl-6-(5-methylfuran-2-yl)-5,6-dihydro-pyrimido[4′,5′-3,4]pyrrolo[1,2-a]quinoxaline-8,10-(7H,9H)-dione]
- IC50 [1]: < 1000 nM
- inhibition of UTP-induced chloride currents [2]: little inhibition
- CFTR current-voltage relationship after addition [3]: remained linear
- Mean channel open time [4]: did not significantly change
- mean channel closed time [4]: greatly increased
- Channel open probability (Po) ([4]; control 0.50±0.04, forskolin and IBMX, +80 mV): 0.14±0.03
- unitary conductance ([4]; control 7 pS at +80 mV): did not change
